The values that follow come from article PMC9499324, “Glycyrrhizic Acid Derivatives Bearing Amino Acid Residues in the Carbohydrate Part as Dengue Virus E Protein Inhibitors: Synthesis and Antiviral Activity” (International Journal of Molecular Sciences, 2022).

The test system of data set [1] is DENV2. As to the kind of experiment: DENV2 infectivity inhibition (anti-NS4B immunofluorescence) in Vero E6 cells. In kind it is cell-based, Dengue virus type 2. The note with it: for inhibition at 10 µM: Vero C1008, 10 μM compound, DENV2, Vero E6 cells, 96 h, read-out: Inhibition (%) at 10 μM (reduction of NS4B-positive cells). An excerpt:
(§1) […] In CPE and infectivity reduction assays, […], and then photographed by microscope for examining the levels of DENV2-induced CPE in infected cells treated with or without GL conjugate. Meanwhile, the cells were further performed using immunofluorescence assay (IFA) with anti-DENV NS4B antibodies (GeneTex, Inc., Hsinchu, Taiwan) and anti-rabbit IgG antibodies conjugated with AF555 (ThermoFisher, Waltham, MA, USA) plus DAPI (4′,6-diamidino-2-phenylindole) nuclear staining. Finally, the DENV-2 infectivity was measured according to the ratio of DENV NS4B-positive cells to DAPI-stained cells in the well of mock-treated or treated cells, as described in [45, 59, 60].

For data set [2], the system named is DENV2. The experiment in a line: DENV2-induced cytopathic effect (CPE) reduction screening in Vero E6 cells. The data set is classed as cell-based, Dengue virus type 2. The note with it: for inhibition at 10 µM: Dengue virus. As to the method:
(§2) In the antiviral screening assay, each tested GL conjugate at 10 μM was used to survey the anti-DENV activity in Vero E6 cells using cytopathic effect (CPE) and infectivity reduction assays as described in our prior report. In CPE and infectivity reduction assays, Vero E6 cells were infected by DENV2 at an MOI of 0.005 and simultaneously treated 10 μM of indicated GL conjugate for 96 h, and then photographed by microscope for examining the levels of DENV2-induced CPE in infected cells treated with or without GL conjugate. Meanwhile, the cells were further performed using immunofluorescence assay (IFA) with anti-DENV NS4B antibodies (GeneTex, Inc., Hsinchu, Taiwan) and anti-rabbit IgG antibodies conjugated with AF555 (ThermoFisher, Waltham, MA, USA) plus DAPI (4′,6-diamidino-2-phenylindole) nuclear staining. Finally, the DENV-2 infectivity was measured according to the ratio of DENV NS4B-positive cells to DAPI-stained cells in the well of mock-treated or treated cells, as described in [45, 59, 60].

In another data set the test system is DENV1 and DENV2. The experiment in a line: DENV infectivity inhibition, summary over DENV1 and DENV2 in Vero E6 and A549 cells. To be noted: Dengue virus, range over DENV1 and DENV2, Vero E6 and A549 cells; read-out: IC50 in DENV infectivity (range over assays). The data set is classed as cell-based, Dengue virus.
Text: as §1

In data set [3] the test system is DENV2. The experiment in a line: DENV2 infectivity inhibition (anti-NS4B immunofluorescence) in A549 cells. The data set is classed as cell-based, Dengue virus type 2.
A short description of data set [4]: MTT cytotoxicity assay in A549 cells. In kind it is cell-based. The note with it: human. The protocol: (§3) Vero E6 cells and A549 cells (5 × 10^3 cells/well) were treated with the serial dilution of GL conjugates at 0, 0.1, 10, 20, and 50 μM for examining the in vitro cytotoxicity of tested compounds. After 96-h incubation at 37 °C, the cells were incubated with MTT (3-(4,5-Dimethylthiazol-2-yl)-2,5-Diphenyltetrazolium Bromide) solution for another 4 h incubation, mixed with DMSO for 15 min after the removal of media, and then measured the absorbance at 570 nm. The viability (%) of treated cells was quantified according to the reduced ability of MTT. Finally, the concentration for reducing 50% cell viability (the 50% cytotoxic concentration, CC50) was determined by regression analysis of the concentration–response survival curve.
(In general: Tetrazolium assays rely on reduction of a dye to a coloured formazan, in cell work by metabolically active cells.)

In data set [5] the test system is DENV2. As to the kind of experiment: Time-of-addition/compound removal assay with DENV2 in Vero E6 cells. In kind it is cell-based, Dengue virus type 2. The note with it: time-of-addition/removal, Vero E6 cells. The protocol: Figure 5 Time-of-addition and removal assay for analyzing antiviral action of compounds 3 (A), 6 (B), 11 (C), and 21 (D) in Vero E6 cells. In the attachment mode, cells were pre-cooled and incubated with fresh-prepared mixtures of active compounds with DENV2 at 4 °C for 1 h. After the removal of the mixtures, the cells were kept at 37 °C for 96 h (a cycle of viral replication) and then were performed by immunofluorescent assay plus DAPI staining. In entry and post-entry modes, cells were infected with DENV2 and treated with the compounds simultaneously (the entry stage) or 1-h post-infection (post-entry stage). After a 1 h incubation period, the virus/compound mixture was removed; the cell monolayer was washed with PBS and cultured for 96 h and then subjected to immunofluorescence staining and DAPI. Finally, the inhibition percentage of DENV2 infectivity was calculated as follows: 1-(percentage of NS4B positivity in treated cells/percentage of NS4B positivity in mock-treated cells). *** p < 0.001 compared with the other two antiviral action modes.
The time-of-addition assays consisted of three modes including attachment treatment/removal, entry-treatment/removal, and post-entry treatment/removal modes. In the attachment-treatment/removal mode, Vero E6 cells monolayer in 6-well plate was placed at 4 °C for 2 h and incubated with the fresh-prepared mixture of DENV-2 (MOI = 0.005) with the active compound at indicated concentrations for 2 h at 4 °C, and then washed with phosphate-buffered saline (PBS). In the entry-treatment/removal mode, Vero E6 cells were simultaneously treated with the active compound and infected DENV-2 (MOI = 0.005) in 6-well plates, incubated for 1 h at 37 °C, and then washed with PBS. In the post-entry treatment/removal mode, the cells were infected with DENV-2 for 1 h at 37 °C, treated with the active compounds at indicated concentrations for 1 h at 37 °C, respectively, and then washed by PBS. After active compound removal (washout), the cells were incubated at 37 °C for 96 h, and then were analyzed by immunofluorescent and DAPI staining assay for determining the residual DENV-2 infectivity, as described above. The inhibitory activity of the transient treatment by active compounds on attachment, entry, and post-entry stages of DENV replication in vitro was determined based on the residual infectivity.

The next data set concerns DENV1. As to the kind of experiment: DENV1 infectivity inhibition assay in Vero E6 cells. In kind it is cell-based. To be noted: Dengue virus, DENV1, Vero C1008, read-out: IC50 in the DENV1 infectivity inhibition assay. The protocol:
as §2
Supplemental Figure S25. Infectivity inhbition of DENV1 in Vero E6 cells by active GL conjugates. Cells were infected with DENV1 in the presence and absence of Compounds 3, 6, 11, and 21 at the concentrations of 0.1, 1, and 10 μM, respectively. Treated/infected Vero E6 cells were also analyzed using immunofluorescence staining with anti-DENV2 NS4B antibodies.
Residual infectivity was discovered by the ratio of DENV2 NS4B positive cells to total cells stained with DAPI, and relative inhibition activity was determined based on full infectivity with the subtraction of its residual infectivity.
(1 picture or pasted object on this page, not shown here)

Data set [6] is described as follows: MTT cytotoxicity assay in Vero E6 cells. The note with it: African green monkey. The data set is classed as cell-based. The protocol: as §3
Setting [7] is: Vero C1008, 10 μM compound, DENV2, Vero E6 cells, 96 h, read-out: CPE Reduction at 10 μM.
The mark [8] stands for this setting: 10 μM compound, DENV2, Vero E6 cells, 96 h.

With `COC(=O)[C@H](CCSC)NC(=O)[C@H]1O[C@@H](O[C@H]2[C@H](OC3CC[C@@]4(C)C(CC[C@]5(C)C4C(=O)C=C4C6C[C@@](C)(C(=O)O)CC[C@]6(C)CC[C@]45C)C3(C)C)O[C@H](C(=O)N[C@@H](CCSC)C(=O)OC)[C@@H](O)[C@@H]2O)[C@H](O)[C@@H](O)[C@@H]1O` (stereo partly drawn) [Compound 8, 3-O-{2-O-[N-(β-D-Glucopyranosyluronoyl)-L-methioninemethyl ester]-N-(β-D-glucopyranosyluronoyl)-L-methioninemethyl ester}-(3β, 20β)-11-oxo-30-noroleane-12-ene-30-oic Acid], the figures for the inhibition at 10 µM with DENV2 [1] (Dengue virus) and in the data set on DENV2 [2] (setting [7]) were 51.6% and 25 to 50%, respectively.
Turning to `CC[C@H](C)[C@H](NC(=O)[C@H]1O[C@@H](O[C@H]2[C@H](OC3CC[C@@]4(C)C(CC[C@]5(C)C4C(=O)C=C4C6C[C@@](C)(C(=O)O)CC[C@]6(C)CC[C@]45C)C3(C)C)O[C@H](C(=O)N[C@H](C(=O)OC)[C@@H](C)CC)[C@@H](O)[C@@H]2O)[C@H](O)[C@@H](O)[C@@H]1O)C(=O)OC` (stereo partly drawn) [Compound 4, 3-O-{2-O-[N-(β-D-Glucopyranosyluronoyl)-L-isoleucinemethyl ester]-N-(β-D-glucopyranosyluronoyl)-L-isoleucinemethyl ester}-(3β, 20β)-11-oxo-30-norolean-12-ene-30-oic Acid], in the data set on DENV2 [2] (setting [8]), the “CPE Reduction at 10 μM” value is reported as “−”.
Same read-out and setting: in the case of `COC(=O)[C@@H](NC(=O)[C@H]1O[C@@H](O[C@H]2[C@H](OC3CC[C@@]4(C)C(CC[C@]5(C)C4C(=O)C=C4C6C[C@@](C)(C(=O)O)CC[C@]6(C)CC[C@]45C)C3(C)C)O[C@H](C(=O)N[C@H](C(=O)OC)C(C)C)[C@@H](O)[C@@H]2O)[C@H](O)[C@@H](O)[C@@H]1O)C(C)C` (stereo partly drawn) [Compound 2, 3-O-{2-O-[N-(β-D-Glucopyranosyluronoyl)-L-valinemethyl ester]-N-(β-D-glucopyranosyluronoyl)-L-valinemethyl ester}-(3β, 20β)-11-oxo-30-norolean-12-ene-30-oic Acid] it was “−”.
As for `CCOC(=O)[C@@H](Cc1ccccc1)NC(=O)CNC(=O)[C@H]1O[C@@H](O[C@H]2[C@H](OC3CC[C@@]4(C)C(CC[C@]5(C)C4C(=O)C=C4C6C[C@@](C)(C(=O)O)CC[C@]6(C)CC[C@]45C)C3(C)C)O[C@H](C(=O)NCC(=O)N[C@H](Cc3ccccc3)C(=O)OCC)[C@@H](O)[C@@H]2O)[C@H](O)[C@@H](O)[C@@H]1O` (stereo partly drawn) [Compound 16, 3-O-{2-O-[N-(β-D-Glucopyranosyluronoyl)-glycyl-L-phenylalanineethyl ester]-N-(β-D-glucopyranosyluronoyl)-glycyl-L-phenylalanineethyl ester}-(3β,20β)-11-oxo-30-noroleane-12-ene-30-acid], the inhibition at 10 µM was 63.8% with DENV2 [1] (Dengue virus) and 50 to 75% in the data set on DENV2 [2] (setting [7]).
As usually defined, the IC50 is the concentration that inhibits the measured activity by half. Broadly, the CC50 is the concentration at which the toxic effect on the cells reaches its halfway point. As for `COC(=O)[C@H](Cc1ccc(O)cc1)NC(=O)[C@H]1O[C@@H](O[C@H]2[C@H](OC3CC[C@@]4(C)C(CC[C@]5(C)C4C(=O)C=C4C6C[C@@](C)(C(=O)O)CC[C@]6(C)CC[C@]45C)C3(C)C)O[C@H](C(=O)N[C@@H](Cc3ccc(O)cc3)C(=O)OC)[C@@H](O)[C@@H]2O)[C@H](O)[C@@H](O)[C@@H]1O` (stereo partly drawn) [Compound 6, 3-O-{2-O-[N-(β-D-glucopyranosyluronoyl)-L-tyrosinemethyl ester]-N-(β-D-glucopyranosyluronoyl)-L-tyrosinemethyl ester}-(3β,20β)-11-oxo-30-noroleane-12-ene-30-oic acid], the IC50 is 0.1 to 5.98 µM in the data set with DENV1 and DENV2; less than 0.1 µM in the data set with DENV2 [3] (Dengue virus); 6 µM in the data set with DENV2 [1] (Dengue virus, DENV2, Vero C1008, read-out: Inhibition of DENV2 Infectivity (IC50, μM), Vero E6 cells); 5.98 ± 0.41 µM with DENV2 [1] (Vero E6 cells, read-out: Inhibition of DENV2 Infectivity (IC50)); less than 0.1 µM in the data set on DENV1. The “Selectivity Index (CC50/ IC50)” value in the data set with DENV2 [3] is on record as greater than 1000; in the data set on DENV2 [1] (Vero E6 cells, DENV2), greater than 16.7. Also, the CC50 at 96 h in data set [4] and in data set [6] was greater than 100 µM in each case. In addition, the “Stage of DENV2 replication affected (attachment, entry, post-entry modes)” value in the data set on DENV2 [5] is “predominantly impeded the post-entry stage”. Moreover, the figures for the inhibition at 10 µM in the data set on DENV2 [1] (Dengue virus) and with DENV2 [2] (setting [7]) were 94% and 75 to 100%, respectively.
`CCOC(=O)CCNC(=O)[C@H]1O[C@@H](O[C@H]2[C@H](OC3CC[C@@]4(C)C(CC[C@]5(C)C4C(=O)C=C4C6C[C@@](C)(C(=O)O)CC[C@]6(C)CC[C@]45C)C3(C)C)O[C@H](C(=O)NCCC(=O)OCC)[C@@H](O)[C@@H]2O)[C@H](O)[C@@H](O)[C@@H]1O` (stereo partly drawn) [Compound 15, 3-O-{2-O-[N-(β-D-Glucopyranosyluronoyl)-β-alanineethyl ester]-N-(β-D-glucopyranosyluronoyl)-β-alanineethyl ester}-(3β, 20β)-11-oxo-30-noroleane-12-ene-30-acid]: the inhibition at 10 µM in the data set on DENV2 [1] (Dengue virus) was 53.6%; with DENV2 [2] (setting [7]), 25 to 50%.
Take `COC(=O)[C@@H](Cc1ccc(O)cc1)NC(=O)[C@H]1O[C@@H](O[C@H]2[C@H](OC3CC[C@@]4(C)C(CC[C@]5(C)C4C(=O)C=C4C6C[C@@](C)(C(=O)O)CC[C@]6(C)CC[C@]45C)C3(C)C)O[C@H](C(=O)N[C@H](Cc3ccc(O)cc3)C(=O)OC)[C@@H](O)[C@@H]2O)[C@H](O)[C@@H](O)[C@@H]1O` (stereo partly drawn) [Compound 7, 3-O-{2-O-[N-(β-D-Glucopyranosyluronoyl)-D-tyrosinemethyl ester]-N-(β-D-glucopyranosyluronoyl)-D-tyrosinemethyl ester}-(3β, 20β)-11-oxo-30-noroleane-12-ene-30-oic Acid]: the inhibition at 10 µM in the data set on DENV2 [1] (Dengue virus) is 51.7%; in the data set with DENV2 [2] (DENV2, Vero C1008, read-out: CPE inhibition), 25 to 50%; in the data set with DENV2 [2] (setting [7]) it was 25 to 50%.
